Here are results for 13 molecules from ChEMBL document CHEMBL1909046, “DrugMatrix in vitro pharmacology data”.

For one test, the target named is T1, Endothelin-1 receptor (Homo sapiens, UniProt P25101). Further: in other assays of this panel Not Active means under 50% inhibition at 10 µM.
T1 sequence (P25101 whole entry): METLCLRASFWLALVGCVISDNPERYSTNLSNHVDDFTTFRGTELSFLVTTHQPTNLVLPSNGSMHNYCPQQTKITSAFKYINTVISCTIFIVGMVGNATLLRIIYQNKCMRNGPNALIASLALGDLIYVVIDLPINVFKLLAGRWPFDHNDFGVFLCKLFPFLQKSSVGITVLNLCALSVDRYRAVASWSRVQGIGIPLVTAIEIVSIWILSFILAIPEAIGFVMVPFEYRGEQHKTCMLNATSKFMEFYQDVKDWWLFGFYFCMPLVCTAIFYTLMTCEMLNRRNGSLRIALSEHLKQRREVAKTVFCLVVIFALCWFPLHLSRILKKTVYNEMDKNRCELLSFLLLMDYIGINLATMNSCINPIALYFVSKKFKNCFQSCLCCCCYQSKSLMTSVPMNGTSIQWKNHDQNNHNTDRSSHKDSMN
The class given is cell membranes, Membrane. As to conditions: cho-k1.

For a further test, the target named is Carbonic anhydrase 2 (Homo sapiens, UniProt P00918). The experiment in a line: DRUGMATRIX: Carbonic Anhydrase II enzyme inhibition (substrate: 4-Nitrophenyl acetate (4-NPA)). The class given is tissue-based, Erythrocyte. The conditions noted are these: Not Active = under 50% inhibition at 10 µM.
In another test the target is T2, Leukotriene C4 synthase (Cavia porcellus, UniProt A6XA80).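 Further: enzyme inhibition assay of leukotriene C4 synthase, using LTA4 as the substrate; in other assays of this panel Not Active means under 50% inhibition at 10 µM.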
T2 sequence (A6XA80 whole entry): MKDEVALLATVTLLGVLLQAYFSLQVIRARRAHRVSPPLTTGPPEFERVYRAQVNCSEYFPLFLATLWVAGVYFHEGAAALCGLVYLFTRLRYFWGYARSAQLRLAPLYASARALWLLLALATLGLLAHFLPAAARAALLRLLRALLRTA
The class given is tissue-based, Lung.

Another test concerns the target T3, Glucocorticoid receptor (Homo sapiens, UniProt P04150). Further: in other assays of this panel Not Active means under 50% inhibition at 10 µM.
T3 sequence (P04150 whole entry): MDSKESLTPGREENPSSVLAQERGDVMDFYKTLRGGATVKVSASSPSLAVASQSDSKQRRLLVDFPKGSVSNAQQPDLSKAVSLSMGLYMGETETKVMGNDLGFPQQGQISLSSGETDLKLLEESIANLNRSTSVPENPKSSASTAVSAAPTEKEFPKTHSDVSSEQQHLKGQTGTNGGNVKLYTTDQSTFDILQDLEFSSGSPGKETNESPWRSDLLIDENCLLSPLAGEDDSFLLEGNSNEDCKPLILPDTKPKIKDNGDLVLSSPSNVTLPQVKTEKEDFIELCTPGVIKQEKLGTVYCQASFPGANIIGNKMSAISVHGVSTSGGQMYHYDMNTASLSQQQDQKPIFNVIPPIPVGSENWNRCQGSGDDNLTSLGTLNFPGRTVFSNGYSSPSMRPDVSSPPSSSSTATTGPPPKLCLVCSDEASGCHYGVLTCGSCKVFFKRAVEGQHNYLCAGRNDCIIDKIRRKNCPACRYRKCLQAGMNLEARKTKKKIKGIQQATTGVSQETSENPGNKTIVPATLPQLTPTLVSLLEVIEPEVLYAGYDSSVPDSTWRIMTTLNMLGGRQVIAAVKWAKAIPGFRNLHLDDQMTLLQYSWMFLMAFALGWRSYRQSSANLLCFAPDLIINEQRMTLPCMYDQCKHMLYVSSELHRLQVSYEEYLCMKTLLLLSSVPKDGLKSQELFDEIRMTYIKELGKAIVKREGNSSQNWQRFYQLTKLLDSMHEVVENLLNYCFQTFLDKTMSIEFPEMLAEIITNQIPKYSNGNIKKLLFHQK
As to conditions: hela s3.

For test [1], the target named is Tyrosine-protein kinase Lck (Homo sapiens, UniProt P06239). The experiment in a line: DRUGMATRIX: Protein Tyrosine Kinase, LCK enzyme inhibition (substrate: Poly(Glu:Tyr)). The test is classed as cell-based, Insect cells. The conditions noted are these: insect cells; Not Active = under 50% inhibition at 10 µM.
Test [2] has as its target Delta-type opioid receptor (Homo sapiens, UniProt P41143). The class given is cell membranes, HEK293, Membrane. The conditions noted are these: hek293. Further: in other assays of this panel Not Active means under 50% inhibition at 10 µM.
The next test concerns the target T4, Substance-K receptor (Homo sapiens, UniProt P21452). Further: in other assays of this panel Not Active means under 50% inhibition at 10 µM.
T4 sequence (P21452 whole entry): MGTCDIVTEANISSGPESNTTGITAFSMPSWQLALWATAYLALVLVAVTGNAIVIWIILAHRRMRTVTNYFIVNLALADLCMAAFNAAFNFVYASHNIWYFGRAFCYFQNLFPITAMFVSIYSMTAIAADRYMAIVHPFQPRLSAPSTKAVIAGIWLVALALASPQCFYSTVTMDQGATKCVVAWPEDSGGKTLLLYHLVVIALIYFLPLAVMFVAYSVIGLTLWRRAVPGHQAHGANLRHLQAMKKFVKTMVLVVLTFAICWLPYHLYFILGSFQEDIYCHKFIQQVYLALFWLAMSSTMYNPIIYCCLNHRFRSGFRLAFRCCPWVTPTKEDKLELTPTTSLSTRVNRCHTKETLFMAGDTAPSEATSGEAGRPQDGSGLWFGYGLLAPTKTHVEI
The test is classed as cell membranes, CHO, Membrane. As to conditions: cho.

Tyrosine-protein kinase Lck, sequence (P06239 whole entry): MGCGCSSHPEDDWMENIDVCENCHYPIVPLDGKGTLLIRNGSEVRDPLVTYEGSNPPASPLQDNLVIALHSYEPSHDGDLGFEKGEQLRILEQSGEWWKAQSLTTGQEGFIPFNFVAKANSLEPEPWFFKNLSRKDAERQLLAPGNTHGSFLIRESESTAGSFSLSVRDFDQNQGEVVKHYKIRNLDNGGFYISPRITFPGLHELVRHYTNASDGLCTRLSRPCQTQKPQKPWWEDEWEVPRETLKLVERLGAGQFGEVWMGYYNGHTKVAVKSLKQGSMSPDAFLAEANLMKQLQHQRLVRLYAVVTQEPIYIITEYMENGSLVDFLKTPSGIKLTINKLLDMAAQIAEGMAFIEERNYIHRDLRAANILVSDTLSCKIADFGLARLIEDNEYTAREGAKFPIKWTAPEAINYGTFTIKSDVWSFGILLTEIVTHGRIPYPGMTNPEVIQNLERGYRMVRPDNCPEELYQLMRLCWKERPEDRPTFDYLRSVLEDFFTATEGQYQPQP
Delta-type opioid receptor, sequence (P41143 whole entry): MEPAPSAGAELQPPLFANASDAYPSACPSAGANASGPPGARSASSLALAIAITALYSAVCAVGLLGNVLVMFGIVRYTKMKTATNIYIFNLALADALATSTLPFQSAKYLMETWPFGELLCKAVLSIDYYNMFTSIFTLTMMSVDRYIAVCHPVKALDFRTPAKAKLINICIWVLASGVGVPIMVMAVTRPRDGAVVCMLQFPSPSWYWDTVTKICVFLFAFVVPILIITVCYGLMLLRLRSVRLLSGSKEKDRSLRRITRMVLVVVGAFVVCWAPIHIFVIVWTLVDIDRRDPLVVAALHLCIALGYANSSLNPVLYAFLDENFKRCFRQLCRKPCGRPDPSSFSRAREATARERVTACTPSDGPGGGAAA

Take `NC(=O)c1cccnc1` [NIACINAMIDE]: the IC50 result (against Endothelin-1 receptor; against Carbonic anhydrase 2 (erythrocyte); at Leukotriene C4 synthase; at Glucocorticoid receptor; in test [1]; in test [2]) was “Not Active” throughout. At Substance-K receptor, the IC50 entry is “Not Active”.
Regarding `CN1C(=O)CN=C(c2ccccc2)c2cc([N+](=O)[O-])ccc21` [NIMETAZEPAM], the half-inhibitory concentration (IC50) result (at Endothelin-1 receptor; at Carbonic anhydrase 2 (erythrocyte); against Leukotriene C4 synthase; against Glucocorticoid receptor; in test [1]; in test [2]) was “Not Active” in each case. Moreover, on Substance-K receptor, the IC50 entry is on record as “Not Active”.
For the molecule `COc1ccc2c(c1OC)C(=O)O[C@@H]2[C@H]1c2c(cc3c(c2OC)OCO3)CCN1C` [NOSCAPINE], the IC50 entry (against Endothelin-1 receptor; against Carbonic anhydrase 2 (erythrocyte); at Leukotriene C4 synthase; against Glucocorticoid receptor; in test [1]; in test [2]) was “Not Active” throughout. Besides, the IC50 result against Substance-K receptor is recorded as “Not Active”.
On to `C[C@@H]1O[C@@H](O[C@H]2C[C@@H](O)[C@]3(CO)[C@H]4[C@H](O)C[C@]5(C)[C@@H](C6=CC(=O)OC6)CC[C@]5(O)[C@@H]4CC[C@]3(O)C2)[C@H](O)[C@H](O)[C@H]1O` [OUABAIN], for which the IC50 entry (at Endothelin-1 receptor; at Carbonic anhydrase 2 (erythrocyte); on Leukotriene C4 synthase; against Glucocorticoid receptor; in test [1]; in test [2]) was “Not Active” throughout. Further, the half-inhibitory concentration (IC50) entry against Substance-K receptor is on record as “Not Active”.
In the case of `COc1ccnc(C[S+]([O-])c2nc3ccc(OC(F)F)cc3[nH]2)c1OC` (stereo not given) [PANTOPRAZOLE], the IC50 result (on Endothelin-1 receptor; at Carbonic anhydrase 2 (erythrocyte); against Leukotriene C4 synthase; at Glucocorticoid receptor; in test [1]; in test [2]) was “Not Active” each time. The IC50 result at Substance-K receptor is “Not Active”.
Take `N=C(N)c1ccc(OCCCCCOc2ccc(C(=N)N)cc2)cc1` [PENTAMIDINE]: the IC50 result (on Endothelin-1 receptor; against Carbonic anhydrase 2 (erythrocyte); at Leukotriene C4 synthase; against Glucocorticoid receptor; in test [1]; in test [2]) was “Not Active” throughout. Moreover, on Substance-K receptor, the IC50 result is given as “Not Active”.
As for `NNCCc1ccccc1` [PHENELZINE], the concentration for half-maximal inhibition (IC50) entry (on Endothelin-1 receptor; against Carbonic anhydrase 2 (erythrocyte); at Leukotriene C4 synthase; against Glucocorticoid receptor; in test [1]; in test [2]) was “Not Active” in each case. For the same molecule, at Substance-K receptor, the IC50 entry was “Not Active”.
`CCc1ccc(CCOc2ccc(CC3SC(=O)NC3=O)cc2)nc1` (stereo not given) [PIOGLITAZONE]: the IC50 result on Endothelin-1 receptor was “Not Active”; on Carbonic anhydrase 2 (read-out: IC50) it was 0.114 µM; against Leukotriene C4 synthase, “Not Active”; at Glucocorticoid receptor, “Not Active”; in test [1] it was “Not Active”; in test [2], “Not Active”. At Substance-K receptor, the IC50 entry is “Not Active”.
On to `CCCNC(C)C(=O)Nc1ccccc1C` (stereo not given) [PRILOCAINE], for which the half-inhibitory concentration (IC50) entry (against Endothelin-1 receptor; on Carbonic anhydrase 2 (erythrocyte); at Leukotriene C4 synthase; against Glucocorticoid receptor; in test [1]; in test [2]) was “Not Active” throughout. In addition, the IC50 result at Substance-K receptor is “Not Active”.
Turning to `CCN(CC)CCCC(C)Nc1c2ccc(Cl)cc2nc2ccc(OC)cc12` (stereo not given) [QUINACRINE], the IC50 entry (against Endothelin-1 receptor; against Carbonic anhydrase 2 (erythrocyte); against Leukotriene C4 synthase; against Glucocorticoid receptor; in test [1]; in test [2]) was “Not Active” throughout. For the same molecule, the IC50 entry against Substance-K receptor was “Not Active”.
As for `CC[C@]1(O)C[C@@H]2CN(CCc3c([nH]c4ccccc34)[C@@](C(=O)OC)(c3cc4c(cc3OC)N(C)[C@H]3[C@@](O)(C(N)=O)[C@H](O)[C@]5(CC)C=CCN6CC[C@]43[C@@H]65)C2)C1` [VINDESINE], the IC50 entry (against Endothelin-1 receptor; against Carbonic anhydrase 2 (erythrocyte); on Leukotriene C4 synthase; on Glucocorticoid receptor; in test [1]; in test [2]) was “Not Active” in each case. Further, on Substance-K receptor, the IC50 entry is “Not Active”.
COBALTOUS CHLORIDE: the IC50 entry (against Endothelin-1 receptor; against Carbonic anhydrase 2 (erythrocyte); at Leukotriene C4 synthase; on Glucocorticoid receptor; in test [1]; in test [2]) was “Not Active” each time. The IC50 result on Substance-K receptor is recorded as “Not Active”. Moreover, the Ki result (on Endothelin-1 receptor; on Carbonic anhydrase 2 (erythrocyte); at Leukotriene C4 synthase; on Glucocorticoid receptor; in test [1]; in test [2]) was “Not Active” in each case. For the same molecule, at Substance-K receptor, the Ki result was “Not Active”.
COLISTIN: the IC50 entry (at Endothelin-1 receptor; at Carbonic anhydrase 2 (erythrocyte); against Leukotriene C4 synthase; on Glucocorticoid receptor; in test [1]; in test [2]) was “Not Active” each time. Besides, the IC50 result on Substance-K receptor was “Not Active”. Besides, the Ki result (at Endothelin-1 receptor; at Carbonic anhydrase 2 (erythrocyte); at Leukotriene C4 synthase; on Glucocorticoid receptor; in test [1]; in test [2]) was “Not Active” each time. Also, at Substance-K receptor, the Ki entry is on record as “Not Active”.
